# Key:
# Type in all cases: functional
# NCI-H23 [1] = assay: Cytotoxicity against human NCI-H23 cells assessed as growth inhibition after 48 hrs by sulforhodamine B assay; conditions: NCI-H23, 48 h; for CC50: read-out: LC50 (the source's name)
# OVCAR-3 [2] = assay: Cytotoxicity against human OVCAR3 cells assessed as cell growth at 0.1 uM after 48 hrs by sulforhodamine B assay relative to control; conditions: OVCAR-3, 48 h, read-out: Activity
# SF-268 = assay: Cytotoxicity against human SF268 cells assessed as growth inhibition after 48 hrs by sulforhodamine B assay; conditions: SF-268, 48 h; for CC50: read-out: LC50 (the source's name)
# Hs-578T = assay: Cytotoxicity against human Hs 578T cells assessed as cell growth at 1 uM after 48 hrs by sulforhodamine B assay relative to control; conditions: read-out: Activity
# SW-620 [3] = assay: Cytotoxicity against human SW620 cells assessed as cell growth at 100 uM after 48 hrs by sulforhodamine B assay relative to control; conditions: SW-620, 48 h, read-out: Activity
# CCRF-CEM [4] = assay: Cytotoxicity against human CCRF-CEM cells assessed as growth inhibition after 48 hrs by sulforhodamine B assay
# MCF7 = assay: Cytotoxicity against human MCF7 cells assessed as cell growth at 0.01 uM after 48 hrs by sulforhodamine B assay relative to control; conditions: MCF7, 48 h, read-out: Activity
# SW-620 [5] = assay: Cytotoxicity against human SW620 cells assessed as cell growth at 0.01 uM after 48 hrs by sulforhodamine B assay relative to control; conditions: SW-620, 48 h, read-out: Activity
# SK-MEL-2 = assay: Cytotoxicity against human SK-MEL-2 cells assessed as growth inhibition after 48 hrs by sulforhodamine B assay; conditions: SK-MEL-2, 48 h
# 786-0 = assay: Cytotoxicity against human 786-0 cells assessed as cell growth at 1 uM after 48 hrs by sulforhodamine B assay relative to control; conditions: 786-0, 48 h, read-out: Activity
# NCI-H322M = assay: Cytotoxicity against human NCI-H322M cells assessed as cell growth at 10 uM after 48 hrs by sulforhodamine B assay relative to control; conditions: read-out: Activity
# M14 = assay: Cytotoxicity against human M14 cells assessed as cell growth at 10 uM after 48 hrs by sulforhodamine B assay relative to control; conditions: M14, 48 h, read-out: Activity
# SNB-19 = assay: Cytotoxicity against human SNB19 cells assessed as cell growth at 10 uM after 48 hrs by sulforhodamine B assay relative to control; conditions: SNB-19, 48 h, read-out: Activity
# RPMI-8226 = assay: Cytotoxicity against human RPMI8226 cells assessed as cell growth at 0.01 uM after 48 hrs by sulforhodamine B assay relative to control; conditions: RPMI-8226, 48 h, read-out: Activity
# OVCAR-3 [6] = assay: Cytotoxicity against human OVCAR3 cells assessed as cell growth at 1 uM after 48 hrs by sulforhodamine B assay relative to control; conditions: OVCAR-3, 48 h, read-out: Activity
# PC-3 = assay: Cytotoxicity against human PC3 cells assessed as cell growth at 10 uM after 48 hrs by sulforhodamine B assay relative to control; conditions: PC-3, 48 h, read-out: Activity
# UO-31 = assay: Cytotoxicity against human UO31 cells assessed as cell growth at 0.1 uM after 48 hrs by sulforhodamine B assay relative to control; conditions: UO-31, 48 h, read-out: Activity
# CCRF-CEM [7] = assay: Cytotoxicity against human CCRF-CEM cells assessed as cell growth at 100 uM after 48 hrs by sulforhodamine B assay relative to control; conditions: read-out: Activity
# U-251 = assay: Cytotoxicity against human U251 cells assessed as cell growth at 0.1 uM after 48 hrs by sulforhodamine B assay relative to control; conditions: U-251, 48 h, read-out: Activity
# MDA-MB-231 = assay: Cytotoxicity against human MDA-MB-231 cells assessed as cell growth at 1 uM after 48 hrs by sulforhodamine B assay relative to control; conditions: MDA-MB-231, 48 h, read-out: Activity
# SN12C = assay: Cytotoxicity against human SN12C cells assessed as cell growth at 100 uM after 48 hrs by sulforhodamine B assay relative to control; conditions: read-out: Activity
# HL-60(TB) = assay: Cytotoxicity against human HL-60(TB) cells assessed as cell growth at 10 uM after 48 hrs by sulforhodamine B assay relative to control; conditions: HL-60, 48 h, read-out: Activity
# NCI-H23 [8] = assay: Cytotoxicity against human NCI-H23 cells assessed as cell growth at 10 uM after 48 hrs by sulforhodamine B assay relative to control; conditions: NCI-H23, 48 h, read-out: Activity
# MDA-MB-468 = assay: Cytotoxicity against human MDA-MB-468 cells assessed as growth inhibition after 48 hrs by sulforhodamine B assay; conditions: MDA-MB-468, 48 h
# NCI-H522 = assay: Cytotoxicity against human NCI-H522 cells assessed as cell growth at 100 uM after 48 hrs by sulforhodamine B assay relative to control; conditions: NCI-H522, 48 h, read-out: Activity
# HOP-62 [9] = assay: Cytotoxicity against human HOP62 cells assessed as cell growth at 10 uM after 48 hrs by sulforhodamine B assay relative to control; conditions: HOP-62, 48 h, read-out: Activity
# NCI-H460 = assay: Cytotoxicity against human NCI-H460 cells assessed as cell growth at 10 uM after 48 hrs by sulforhodamine B assay relative to control; conditions: NCI-H460, 48 h, read-out: Activity
# T47D = assay: Cytotoxicity against human T47D cells assessed as cell growth at 0.1 uM after 48 hrs by sulforhodamine B assay relative to control; conditions: read-out: Activity
# SK-MEL-28 = assay: Cytotoxicity against human SK-MEL-28 cells assessed as cell growth at 10 uM after 48 hrs by sulforhodamine B assay relative to control; conditions: SK-MEL-28, 48 h, read-out: Activity
# MOLT-4 = assay: Cytotoxicity against human MOLT4 cells assessed as cell growth at 1 uM after 48 hrs by sulforhodamine B assay relative to control; conditions: MOLT-4, 48 h, read-out: Activity
# HOP-62 [10] = assay: Cytotoxicity against human HOP62 cells assessed as growth inhibition after 48 hrs by sulforhodamine B assay; conditions: HOP-62, 48 h
# SR = assay: Cytotoxicity against human SR cells assessed as cell growth at 1 uM after 48 hrs by sulforhodamine B assay relative to control; conditions: read-out: Activity
# IGROV-1 = assay: Cytotoxicity against human IGROV1 cells assessed as cell growth at 100 uM after 48 hrs by sulforhodamine B assay relative to control; conditions: IGROV-1, 48 h, read-out: Activity
# KM12 = assay: Cytotoxicity against human KM12 cells assessed as cell growth at 10 uM after 48 hrs by sulforhodamine B assay relative to control; conditions: KM12, 48 h, read-out: Activity
# HCT-15 = assay: Cytotoxicity against human HCT15 cells assessed as cell growth at 1 uM after 48 hrs by sulforhodamine B assay relative to control; conditions: HCT-15, 48 h, read-out: Activity
compound,measurement,setting,value
COc1cc(-c2cc(/C=C/C(=O)c3ccc4c(c3)OCO4)[nH]n2)cc(OC)c1OC,TGI,NCI-H23 [1],> 100 µM
same,CC50,NCI-H23 [1],> 100 µM
same,growth at 0.1 µM,OVCAR-3 [2],101%
same,TGI,SF-268,14.5 µM
same,CC50,SF-268,> 100 µM
same,growth at 1 µM,Hs-578T,94%
same,growth at 100 µM,SW-620 [3],1%
same,LC50 (concentration killing 50% of cells),CCRF-CEM [4],> 100 µM
same,TGI,CCRF-CEM [4],5.95 µM
same,growth at 0.01 µM,MCF7,89%
same,growth at 0.01 µM,SW-620 [5],99%
same,LC50 (concentration killing 50% of cells),SK-MEL-2,81.3 µM
same,TGI,SK-MEL-2,28.9 µM
same,growth at 1 µM,786-0,96%
same,growth at 10 µM,NCI-H322M,3%
same,growth at 10 µM,M14,15%
same,growth at 10 µM,SNB-19,30%
same,growth at 0.01 µM,RPMI-8226,92%
same,growth at 1 µM,OVCAR-3 [6],102%
same,growth at 10 µM,PC-3,6%
same,growth at 0.1 µM,UO-31,83%
same,growth at 100 µM,CCRF-CEM [7],-13%
same,growth at 0.1 µM,U-251,95%
same,growth at 1 µM,MDA-MB-231,86%
same,growth at 100 µM,SN12C,18%
same,growth at 10 µM,HL-60(TB),-21%
same,growth at 10 µM,NCI-H23 [8],63%
same,GI50,MDA-MB-468,1.4 µM
same,LC50,MDA-MB-468,5.82 µM
same,TGI,MDA-MB-468,2.86 µM
same,growth at 100 µM,NCI-H522,-97%
same,growth at 10 µM,HOP-62 [9],-38%
same,growth at 10 µM,NCI-H460,-38%
same,growth at 0.1 µM,T47D,91%
same,growth at 10 µM,SK-MEL-28,-14%
same,growth at 1 µM,MOLT-4,99%
same,LC50,HOP-62 [10],23.5 µM
same,TGI,HOP-62 [10],5.17 µM
same,growth at 1 µM,SR,32%
same,growth at 100 µM,IGROV-1,-8%
same,growth at 10 µM,KM12,-69%
same,growth at 1 µM,HCT-15,81%
COc1ccc(C(=O)/C=C/c2cc(-c3ccc4c(c3)OCO4)n[nH]2)cc1OC,TGI,NCI-H23 [1],19.6 µM
same,CC50,NCI-H23 [1],66 µM
same,growth at 0.1 µM,OVCAR-3 [2],104%
same,TGI,SF-268,7.61 µM
same,CC50,SF-268,40.5 µM
same,growth at 1 µM,Hs-578T,94%
same,growth at 100 µM,SW-620 [3],-78%
same,LC50 (concentration killing 50% of cells),CCRF-CEM [4],> 100 µM
same,TGI,CCRF-CEM [4],9.58 µM
same,growth at 0.01 µM,MCF7,92%
same,growth at 0.01 µM,SW-620 [5],100%
same,LC50 (concentration killing 50% of cells),SK-MEL-2,68 µM
same,TGI,SK-MEL-2,23.2 µM
same,growth at 1 µM,786-0,94%
same,growth at 10 µM,NCI-H322M,-15%
same,growth at 10 µM,M14,38%
same,growth at 10 µM,SNB-19,21%
same,growth at 0.01 µM,RPMI-8226,99%
same,growth at 1 µM,OVCAR-3 [6],92%
same,growth at 10 µM,PC-3,16%
same,growth at 0.1 µM,UO-31,81%
same,growth at 100 µM,CCRF-CEM [7],-13%
same,growth at 0.1 µM,U-251,91%
same,growth at 1 µM,MDA-MB-231,90%
same,growth at 100 µM,SN12C,-73%
same,growth at 10 µM,HL-60(TB),3%
same,growth at 10 µM,NCI-H23 [8],28%
same,GI50,MDA-MB-468,1.86 µM
same,LC50,MDA-MB-468,13.5 µM
same,TGI,MDA-MB-468,4.52 µM
same,growth at 100 µM,NCI-H522,-89%
same,growth at 10 µM,HOP-62 [9],-29%
same,growth at 10 µM,NCI-H460,-56%
same,growth at 0.1 µM,T47D,94%
same,growth at 10 µM,SK-MEL-28,36%
same,growth at 1 µM,MOLT-4,96%
same,LC50,HOP-62 [10],25.8 µM
same,TGI,HOP-62 [10],5.6 µM
same,growth at 1 µM,SR,57%
same,growth at 100 µM,IGROV-1,-59%
same,growth at 10 µM,KM12,-2%
same,growth at 1 µM,HCT-15,86%
